Test results published in the supplement of paper PMC10307832.

What was measured:
Assay in all cases: relative viability (nuclei count vs DMSO), 5 days (fraction); higher = more cells survive
CAL-12T = test system: CAL-12T
In short: (§1)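 Lung cancer cell lines were pin-tool dosed in 1536-well plates on the day after seeding, with either a lone drug or a fixed anchor-drug dose plus five library-drug doses (not always all listed) in √10 steps. Nuclei were counted on 4× images after 5 days. Relative viability is the ratio of treated-well to vehicle-well nuclei counts, with each value a median of duplicate plates.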

COR-L 105 = test system: COR-L 105
In short: as §1

EMC-BAC-2 = test system: EMC-BAC-2
In short: as §1

H3255 = test system: H3255
In short: as §1

LC-2-ad = test system: LC-2-ad
In short: as §1

LK-2 = test system: LK-2
In short: as §1

NCI-H1395 = test system: NCI-H1395
In short: as §1

NCI-H1437 = test system: NCI-H1437
In short: as §1

NCI-H1651 = test system: NCI-H1651
In short: as §1

NCI-H1755 = test system: NCI-H1755
In short: as §1

NCI-H1793 = test system: NCI-H1793
In short: as §1

NCI-H1915 = test system: NCI-H1915
In short: as §1

NCI-H1944 = test system: NCI-H1944
In short: as §1

NCI-H2085 = test system: NCI-H2085
In short: as §1

NCI-H2087 = test system: NCI-H2087
In short: as §1

NCI-H2228 = test system: NCI-H2228
In short: as §1

NCI-H2347 = test system: NCI-H2347
In short: as §1

NCI-H661 = test system: NCI-H661
In short: as §1

PC-3 [JPC-3] = test system: PC-3 [JPC-3]
In short: as §1

SK-LU-1 = test system: SK-LU-1
In short: as §1

COCC1(CO)C(=O)C2CCN1CC2 (configuration not stated) [PRIMA-1MET] + C[C@]1(O)C[C@@H](c2nc(-c3ccc4ccc(-c5ccccc5)nc4c3)c3c(N)nccn32)C1 [Linsitinib] (partner 1 µM)
relative viability (CAL-12T; first compound 0.2 µM): 0.725 | relative viability (CAL-12T; first compound 0.6325 µM): 0.733 | relative viability (CAL-12T; first compound 2 µM): 0.745 | relative viability (CAL-12T; first compound 6.325 µM): 0.85 | relative viability (CAL-12T; first compound 20 µM): 0.543 | relative viability (COR-L 105; first compound 0.2 µM): 0.943 | relative viability (COR-L 105; first compound 0.6325 µM): 0.815 | relative viability (COR-L 105; first compound 2 µM): 0.823 | relative viability (COR-L 105; first compound 6.325 µM): 0.859 | relative viability (COR-L 105; first compound 20 µM): 0.168 | relative viability (EMC-BAC-2; first compound 0.2 µM): 0.843 | relative viability (EMC-BAC-2; first compound 0.6325 µM): 0.822 | relative viability (EMC-BAC-2; first compound 2 µM): 0.784 | relative viability (EMC-BAC-2; first compound 6.325 µM): 0.821 | relative viability (EMC-BAC-2; first compound 20 µM): 0.817 | relative viability (H3255; first compound 0.2 µM): 1.13 | relative viability (H3255; first compound 0.6325 µM): 1.01 | relative viability (H3255; first compound 2 µM): 0.8 | relative viability (H3255; first compound 6.325 µM): 1.01 | relative viability (H3255; first compound 20 µM): 0.918 | relative viability (LC-2-ad; first compound 0.2 µM): 0.967 | relative viability (LC-2-ad; first compound 0.6325 µM): 0.843 | relative viability (LC-2-ad; first compound 2 µM): 0.754 | relative viability (LC-2-ad; first compound 6.325 µM): 0.858 | relative viability (LC-2-ad; first compound 20 µM): 0.598 | relative viability (LK-2; first compound 0.2 µM): 0.624 | relative viability (LK-2; first compound 0.6325 µM): 0.554 | relative viability (LK-2; first compound 2 µM): 0.237 | relative viability (LK-2; first compound 6.325 µM): 0.224 | relative viability (LK-2; first compound 20 µM): 0.103 | relative viability (NCI-H1395; first compound 0.2 µM): 1.1 | relative viability (NCI-H1395; first compound 0.6325 µM): 0.909 | relative viability (NCI-H1395; first compound 2 µM): 0.958 | relative viability (NCI-H1395; first compound 6.325 µM): 1.61 | relative viability (NCI-H1395; first compound 20 µM): 0.859 | relative viability (NCI-H1437; first compound 0.2 µM): 1.08 | relative viability (NCI-H1437; first compound 0.6325 µM): 0.982 | relative viability (NCI-H1437; first compound 2 µM): 1.02 | relative viability (NCI-H1437; first compound 6.325 µM): 1.1 | relative viability (NCI-H1437; first compound 20 µM): 0.753 | relative viability (NCI-H1651; first compound 0.2 µM): 1.13 | relative viability (NCI-H1651; first compound 0.6325 µM): 0.981 | relative viability (NCI-H1651; first compound 2 µM): 0.907 | relative viability (NCI-H1651; first compound 6.325 µM): 0.955 | relative viability (NCI-H1651; first compound 20 µM): 0.839 | relative viability (NCI-H1755; first compound 0.2 µM): 0.979 | relative viability (NCI-H1755; first compound 0.6325 µM): 0.946 | relative viability (NCI-H1755; first compound 2 µM): 0.937 | relative viability (NCI-H1755; first compound 6.325 µM): 1.02 | relative viability (NCI-H1755; first compound 20 µM): 0.983 | relative viability (NCI-H1793; first compound 0.2 µM): 0.878 | relative viability (NCI-H1793; first compound 0.6325 µM): 0.777 | relative viability (NCI-H1793; first compound 6.325 µM): 1.04 | relative viability (NCI-H1793; first compound 20 µM): 0.581 | relative viability (NCI-H1915; first compound 0.2 µM): 1.26 | relative viability (NCI-H1915; first compound 0.6325 µM): 0.933 | relative viability (NCI-H1915; first compound 2 µM): 1.03 | relative viability (NCI-H1915; first compound 6.325 µM): 1.11 | relative viability (NCI-H1915; first compound 20 µM): 1.08 | relative viability (NCI-H1944; first compound 0.2 µM): 1.27 | relative viability (NCI-H1944; first compound 0.6325 µM): 0.95 | relative viability (NCI-H1944; first compound 6.325 µM): 1.27 | relative viability (NCI-H1944; first compound 20 µM): 1.17 | relative viability (NCI-H2085; first compound 0.2 µM): 1 | relative viability (NCI-H2085; first compound 0.6325 µM): 0.826 | relative viability (NCI-H2085; first compound 2 µM): 0.866 | relative viability (NCI-H2085; first compound 6.325 µM): 0.731 | relative viability (NCI-H2085; first compound 20 µM): 0.287 | relative viability (NCI-H2087; first compound 0.2 µM): 1.07 | relative viability (NCI-H2087; first compound 0.6325 µM): 0.85 | relative viability (NCI-H2087; first compound 2 µM): 0.875 | relative viability (NCI-H2087; first compound 6.325 µM): 1.24 | relative viability (NCI-H2087; first compound 20 µM): 0.691 | relative viability (NCI-H2228; first compound 0.2 µM): 0.735 | relative viability (NCI-H2228; first compound 0.6325 µM): 0.552 | relative viability (NCI-H2228; first compound 2 µM): 0.602 | relative viability (NCI-H2228; first compound 6.325 µM): 0.61 | relative viability (NCI-H2228; first compound 20 µM): 0.046 | relative viability (NCI-H2347; first compound 0.2 µM): 1.02 | relative viability (NCI-H2347; first compound 0.6325 µM): 0.847 | relative viability (NCI-H2347; first compound 2 µM): 0.697 | relative viability (NCI-H2347; first compound 6.325 µM): 0.995 | relative viability (NCI-H2347; first compound 20 µM): 0.934 | relative viability (NCI-H661; first compound 0.2 µM): 0.561 | relative viability (NCI-H661; first compound 0.6325 µM): 0.507 | relative viability (NCI-H661; first compound 6.325 µM): 0.532 | relative viability (NCI-H661; first compound 20 µM): 0.283 | relative viability (PC-3 [JPC-3]; first compound 0.2 µM): 1 | relative viability (PC-3 [JPC-3]; first compound 0.6325 µM): 0.92 | relative viability (PC-3 [JPC-3]; first compound 2 µM): 0.979 | relative viability (PC-3 [JPC-3]; first compound 6.325 µM): 1.02 | relative viability (PC-3 [JPC-3]; first compound 20 µM): 0.91 | relative viability (SK-LU-1; first compound 0.2 µM): 1.24 | relative viability (SK-LU-1; first compound 0.6325 µM): 1.03 | relative viability (SK-LU-1; first compound 2 µM): 1.14 | relative viability (SK-LU-1; first compound 6.325 µM): 1.06 | relative viability (SK-LU-1; first compound 20 µM): 0.458
